We go through five molecules from patent publication US9981972B2, “N-hydroxy bicyclic hydantoin carbamates as tools for identification of serine hydrolase targets” (ABIDE THERAPEUTICS, INC., priority 2014, dated 2018).

Holding throughout (format): biochemical
In one assay the target is T1, LYPLA1 (Mus musculus, UniProt P97823).
T1 construct: a complex proteome endogenously expressing LYPLA1/2 was incubated with test compound; from tissue; host or cells: mouse brain, membrane fraction
Kind of assay: Gel-based competitive ABPP in vitro, mouse brain membrane proteome. The conditions noted are these: for inhibition at 0.1 µM: 0.1 μM compound, read-out: LYPLA1 % INH 0.1 μM; for inhibition at 0.1 µM / inhibition at 1 µM / inhibition at 10 µM / inhibition at 100 µM: 30 min, one replicate; for inhibition at 1 µM: 1 μM compound, read-out: LYPLA1 % INH 1 μM; for inhibition at 10 µM: 10 μM compound, read-out: LYPLA1 % INH 10 μM; for inhibition at 100 µM: 100 μM compound, read-out: LYPLA1 % INH 100 μM. The procedure, abridged:
(§1)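 Mouse brain membrane proteome (1 mg/mL in DPBS) was treated with compound (0.1-100 μM) for 30 min at 37 °C, then labeled with FP-Rh (2 μM final, 30 min, 25 °C). Bands were resolved by SDS-PAGE and scanned in-gel, with inhibition taken from band optical density versus DMSO. Targets counted as active or anti-targets at ≥50% inhibition.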

The next assay deals with T2, LYPLA2 (Mus musculus, UniProt Q9WTL7).
T2 construct: a complex proteome endogenously expressing LYPLA1/2 was incubated with test compound; from tissue; host or cells: mouse brain, membrane fraction
T2 sequence (Q9WTL7 whole entry): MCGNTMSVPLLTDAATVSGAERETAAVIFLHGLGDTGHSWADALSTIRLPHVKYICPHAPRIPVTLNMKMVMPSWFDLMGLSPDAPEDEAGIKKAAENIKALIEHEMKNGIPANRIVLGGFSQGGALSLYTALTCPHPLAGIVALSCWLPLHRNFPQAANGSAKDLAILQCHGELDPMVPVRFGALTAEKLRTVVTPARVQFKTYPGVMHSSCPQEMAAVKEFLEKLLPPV
Described as above. The conditions noted are these: for inhibition at 0.1 µM: 0.1 μM compound, read-out: LYPLA2 % INH 0.1 μM; for inhibition at 0.1 µM / inhibition at 1 µM / inhibition at 10 µM / inhibition at 100 µM: 30 min, one replicate; for inhibition at 1 µM: 1 μM compound, read-out: LYPLA2 % INH 1 μM; for inhibition at 10 µM: 10 μM compound, read-out: LYPLA2 % INH 10 μM; for inhibition at 100 µM: 100 μM compound, read-out: LYPLA2 % INH 100 μM. The procedure, abridged: as §1

In a further assay the target is T3, mABHD3 (Mus musculus, UniProt Q91ZH7).
T3 construct: expressed in transfected cells; host or cells: HEK293T, transient transfection, pCMV-Sport6; lysate used in vitro
T3 sequence (Q91ZH7 1-411): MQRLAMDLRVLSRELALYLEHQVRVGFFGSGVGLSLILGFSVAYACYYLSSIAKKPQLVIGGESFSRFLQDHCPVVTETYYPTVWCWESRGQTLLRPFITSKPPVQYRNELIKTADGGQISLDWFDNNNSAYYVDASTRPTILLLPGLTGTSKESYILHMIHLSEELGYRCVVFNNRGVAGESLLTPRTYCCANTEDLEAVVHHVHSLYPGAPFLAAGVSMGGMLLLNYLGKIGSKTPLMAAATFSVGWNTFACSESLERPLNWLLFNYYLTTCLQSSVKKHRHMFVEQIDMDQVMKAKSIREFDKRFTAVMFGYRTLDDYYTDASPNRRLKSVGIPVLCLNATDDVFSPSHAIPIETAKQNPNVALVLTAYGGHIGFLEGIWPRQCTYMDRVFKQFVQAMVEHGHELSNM
Kind of assay: Gel-based competitive ABPP, recombinant enzyme in transfected HEK293T cell lysates. Particulars: transfected HEK293T lysates, read-out: mABHD3 in vitro potency (IC50). How it is done:
(§2) HEK293T cells were seeded at 2×10^5 per well on 6 well plates and grown for 48 h. They were then transfected with mABHD3 (pCMV-Sport6), hABHD4 (pcDNA3.1/myc-his), hPPT1 (pCMV6-XL5), or hPPT1 S115A (pCMV6-XL5), by incubating 0.5 μg of DNA with 3 μL of PEI MAX (1 mg/mL, Polysciences, Inc) in serum-free DMEM for 30 min, then adding them to cells. After 48 h cells were either treated with compound in situ, as described above, or harvested for in vitro studies. The […] PPT1 mutation was introduced using QuikChange II Site Directed Mutagenesis Kit (Agilent) with the following primers: […]
Human ABHD3 and ABHD4 were recombinantly expressed by transient transfection in HEK293T cells, and the cell lysates were combined to provide a convenient assay for monitor inhibition of both enzymes by gel-based ABPP (see FIG. 8A).

The target in the next assay is T4, ABHD4 (Homo sapiens, UniProt Q8TB40).
T4 sequence (Q8TB40 1-342): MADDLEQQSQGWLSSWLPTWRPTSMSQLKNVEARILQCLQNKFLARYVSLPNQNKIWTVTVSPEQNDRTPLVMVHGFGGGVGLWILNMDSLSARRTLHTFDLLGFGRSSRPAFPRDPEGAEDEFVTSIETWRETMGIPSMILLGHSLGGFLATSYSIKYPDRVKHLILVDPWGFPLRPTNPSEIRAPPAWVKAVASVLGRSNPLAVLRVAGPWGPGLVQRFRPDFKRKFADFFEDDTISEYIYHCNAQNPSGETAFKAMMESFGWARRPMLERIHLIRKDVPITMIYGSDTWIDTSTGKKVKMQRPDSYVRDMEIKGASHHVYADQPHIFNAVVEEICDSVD
The description is as above. Details: myc-his; expressed in transfected cells; host or cells: HEK293T, transient transfection, pcDNA3.1/myc-his; lysate used in vitro. The conditions noted are these: recombinant; for IC50: transfected HEK293T lysates, read-out: hABHD4 in vitro potency (IC50). How it is done:
as §2
Human ABHD3 and ABHD4 were recombinantly expressed by transient transfection in HEK293T cells, and the cell lysates were combined to provide a convenient assay for monitor inhibition of both enzymes by gel-based ABPP (see FIG. 8A). […]

Assay [1] concerns FP-sensitive SHs in the mouse brain membrane proteome. Kind of assay: Gel-based competitive ABPP in vitro, mouse brain membrane proteome, anti-targets. The conditions noted are these: for Anti-target(s) 0.1 μM: SHs with at least 50% inhibition at 0.1 μM compound; for Anti-target(s) 1 μM: SHs with at least 50% inhibition at 1 μM compound; for Anti-target(s) 10 μM: SHs with at least 50% inhibition at 10 μM compound; for Anti-target(s) 100 μM: SHs with at least 50% inhibition at 100 μM compound. The procedure, abridged:
as §1

Another assay deals with T5, human LYPLA1 (Homo sapiens, UniProt O75608).
T5 construct: endogenous human LYPLA1/2 in a HeLa soluble proteome; endogenous in cells; host or cells: HeLa (soluble proteome in vitro; cultured cells in situ)
T5 sequence (O75608 whole entry): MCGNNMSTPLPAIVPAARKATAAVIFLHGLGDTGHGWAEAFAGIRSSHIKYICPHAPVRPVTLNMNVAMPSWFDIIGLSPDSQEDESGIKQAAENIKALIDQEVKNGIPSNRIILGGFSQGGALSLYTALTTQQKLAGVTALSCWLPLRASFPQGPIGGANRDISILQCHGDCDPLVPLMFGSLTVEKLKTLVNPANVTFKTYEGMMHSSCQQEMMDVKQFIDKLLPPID
Kind of assay: IC50 by gel-based competitive ABPP in vitro, soluble HeLa cell proteome. The conditions noted are these: human LYPLA isoform, three replicates; Table 2 prints no unit, nM; read-out: LYPLA1 IC50. The method, then:
(§3) Assay Overview: The purpose of this assay was to determine IC50 values of powder samples of test compounds for enzyme of interest activity, and anti-targets in a complex proteomic lysate using a gel-based competitive ABPP assay. In this assay, a complex proteome was incubated with test compound followed by reaction with FP-Rh and SDS-PAGE analysis as described above.
(§4) Protocol Summary: Soluble HeLa cell proteome (50 μL reaction volume, 1 mg/mL in DPBS) or mouse brain membrane proteome (50 μL reaction volume, 1 mg/mL in DPBS) was treated with varying concentrations of test compound (1 μL of a 50× stock in DMSO) for 30 minutes at 37° C. FP-Rh (1 μL of 50× stock in DMSO) was added to a final concentration of 2 μM. The reaction was incubated for 30 minutes at 25° C., quenched with 16 μL 4×SDS-PAGE loading buffer (reducing), separated by SDS-PAGE and visualized by in-gel fluorescent scanning. The percentage activity remaining was determined by measuring the integrated optical density of the enzymes of interest, and anti-target bands relative to a DMSO-only (no compound) control. IC50 values were determined from dose-response curves from three replicates at each inhibitor concentration: 1, 10, 100, 1000, 10000 nM and 0.01, 0.1, 1, 10, 100, 1000, 10000, 50000, and 100000 nM.

A further assay has as its target T6, human LYPLA2 (Homo sapiens, UniProt O95372).
T6 construct: endogenous human LYPLA1/2 in a HeLa soluble proteome; endogenous in cells; host or cells: HeLa (soluble proteome in vitro; cultured cells in situ)
The assay is described as above. The conditions noted are these: human LYPLA isoform, three replicates; Table 2 prints no unit, nM; read-out: LYPLA2 IC50. The method, then: as §3, §4

Where [2] appears, read: 20 μM, mouse brain (mem) proteome.

Entries after “also recorded” stand apart in the source; their conditions may differ. Some results are limits rather than exact numbers.

T1 sequence (P97823 whole entry): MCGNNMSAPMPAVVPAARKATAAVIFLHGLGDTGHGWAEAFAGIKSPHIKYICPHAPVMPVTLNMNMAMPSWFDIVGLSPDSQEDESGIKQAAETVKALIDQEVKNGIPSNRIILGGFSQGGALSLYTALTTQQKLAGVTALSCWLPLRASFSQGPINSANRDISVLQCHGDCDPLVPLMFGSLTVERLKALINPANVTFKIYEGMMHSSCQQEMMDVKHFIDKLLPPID
T6 sequence (O95372 whole entry): as the sequence (Q9WTL7 whole entry) above, with N154A, T193S counted along it

As to `COC(=O)C1CCN(C(=O)ON2C(=O)C3CN(Cc4ccc(Oc5ccccc5)cc4)CCN3C2=O)CC1` (stereo not shown) [Compound 31, 1-(1,3-dioxo-7-(4-phenoxybenzyl)hexahydroimidazo[1,5-a]pyrazin-2(3H)-yl) 4-methyl piperidine-1,4-dicarboxylate], the “LYPLA1 in vitro enzyme activity, % @ 20 μM” value at LYPLA1 (setting [2]) is 0% @. For the same molecule, the “LYPLA2 in vitro enzyme activity, % @ 20 μM” value at LYPLA2 (setting [2]) worked out at 0% @. The values for the IC50 at mABHD3 and on ABHD4 were greater than 10000 nM and 8200 nM, respectively.

For the molecule `O=C(ON1C(=O)C2CN(Cc3cccc(Oc4ccccc4)c3)CCN2C1=O)N1CCC(CCc2ccc(Cl)cc2)CC1` (stereo not shown) [Compound 35, 1,3-dioxo-7-(3-phenoxybenzyl)hexahydroimidazo[1,5-a]pyrazin-2(3H)-yl 4-(4-chlorophenethyl)piperidine-1-carboxylate], the IC50 is greater than 10000 nM at mABHD3 and 1000 nM at ABHD4.

For `CC(C)(C)CC(=O)N1CCN2C(=O)N(OC(=O)N3CCC(CCc4ccc(Cl)cc4)CC3)C(=O)C2C1` (stereo not shown) [Compound 4, 7-(3,3-dimethylbutanoyl)-1,3-dioxohexahydroimidazo[1,5-a]pyrazin-2(3H)-yl 4-(4-chlorophenethyl)piperidine-1-carboxylate], on LYPLA1, the inhibition at 0.1 µM was found to be 80%, the inhibition at 1 µM came to 100%, the inhibition at 10 µM is 100% and the inhibition at 100 µM came out at 100%. Besides, at LYPLA2, the inhibition at 0.1 µM turned out to be 80%, the inhibition at 1 µM turned out to be 100%, the inhibition at 10 µM turned out to be 100% and the inhibition at 100 µM was 100%. Besides, in assay [1], the “Anti-target(s) 0.1 μM” value is recorded as “ABHD6”, the “Anti-target(s) 1 μM” value is “FAAH,; also recorded: ABHD6”, the “Anti-target(s) 10 μM” value is given as “FAAH,; also recorded: ABHD12,; also recorded: MAGL,; also recorded: ABHD6” and the “Anti-target(s) 100 μM” value is recorded as “FAAH,; also recorded: ABHD12,; also recorded: ABHD4,; also recorded: MAGL,; also recorded: ABHD6”. At human LYPLA1, the IC50 amounted to 92 nM. In addition, at human LYPLA2, the IC50 was 217 nM.

With `O=C(ON1C(=O)C2CN(C(=O)N3CCCC3)CCN2C1=O)N1CCC(CCc2ccc(Cl)cc2)CC1` (stereo not shown) [Compound 3, 1,3-dioxo-7-(pyrrolidine-1-carbonyl)hexahydroimidazo[1,5-a]pyrazin-2(3H)-yl 4-(4-chlorophenethyl)piperidine-1-carboxylate], at LYPLA1, the inhibition at 0.1 µM was found to be 50%, the inhibition at 1 µM stood at 100%, the inhibition at 10 µM is 100% and the inhibition at 100 µM is 100%. In addition, at LYPLA2, the inhibition at 0.1 µM was found to be 50%, the inhibition at 1 µM was 100%, the inhibition at 10 µM worked out at 100% and the inhibition at 100 µM was determined as 100%. In addition, in assay [1], the “Anti-target(s) 0.1 μM” value was “ABHD6”, the “Anti-target(s) 1 μM” value is “FAAH,; also recorded: ABHD6”, the “Anti-target(s) 10 μM” value is on record as “FAAH,; also recorded: ABHD6” and the “Anti-target(s) 100 μM” value is “FAAH,; also recorded: ABHD12,; also recorded: ABHD4,; also recorded: MAGL,; also recorded: ABHD6”. The IC50 at human LYPLA1 came to 225 nM. Also, the half-inhibitory concentration (IC50) on human LYPLA2 came out at 384 nM.

On to `COc1ccc(N2CCN(C(=O)ON3C(=O)C4CN(Cc5cccc(Oc6ccccc6)c5)CCN4C3=O)CC2)cc1` (stereo not shown) [Compound 36, 1,3-dioxo-7-(3-phenoxybenzyl)hexahydroimidazo[1,5-a]pyrazin-2(3H)-yl 4-(4-methoxyphenyl)piperazine-1-carboxylate], for which the results for the half-inhibitory concentration (IC50) on mABHD3 and on ABHD4 were greater than 10000 nM and 200 nM, respectively. In addition, at ABHD4 (combined HEK293T lysates, gel-based ABPP), the “preference ABHD4 over ABHD3” value was “preferentially inhibited ABHD4 over ABHD3”.
